Our source for the normalised response values is the supplement of paper PMC4862054.

SMILES strings stand for the structures.

Assay in all cases: normalised response (% of control), CellTiter-Glo; higher = more viable cells (100 = DMSO, 0 = benzethonium chloride kill control)
Common to all, as to conditions: incubation time: 72 h

The subject of one assay is BT-474. As to the method: (§1)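 DSRT, 72 h incubation, CellTox Green / CellTiter-Glo readout. Signal is normalised to DMSO and benzethonium chloride controls. Value is the normalised response at the highest dose.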
For the next assay, the system named is CAL-85-1. As to the method:
as §1

A further assay relates to HCC1143. As to the method:
as §1

The test system of a further assay is CAL-51. As to the method: as §1
A further assay deals with MDA-MB-436. As to the method:
as §1

A further assay concerns HCC1937. As to the method: as §1
The next assay relates to MDA-MB-453. As to the method:
as §1

The next assay relates to MDA-MB-468. As to the method:
as §1

The subject of a further assay is MCF-10A. As to the method:
as §1

The next assay relates to HDQ-P1. As to the method:
as §1

Another assay concerns BT-549. As to the method: as §1
The next assay concerns CAL-148. As to the method: as §1
A further assay deals with CAL-120. As to the method: as §1
A further assay relates to Hs578T. As to the method: as §1
Another assay has as its system DU-4475. As to the method:
as §1

In the next assay the test system is SK-BR-3. As to the method: as §1
Another assay concerns MFM-223. As to the method:
as §1

Another assay deals with MDA-MB-231. As to the method:
as §1

The next assay deals with HCC1599. As to the method:
as §1

Consider `C=C1C[C@@H]2[C@H](CC[C@]3(C)C(=O)CC[C@@H]23)[C@@]2(C)C=CC(=O)C=C12` [Exemestane] (10000 nM), for which the normalised response in the assay with BT-474 is 108%; in the assay with CAL-85-1, 97.7%; in the assay with HCC1143 it was 94.1%; with CAL-51 it was 81.7%; in the assay on MDA-MB-436, 88%; in the assay with HCC1937 it was 89.5%. Also, the normalised response with MDA-MB-453 came to 95.7%; in the assay with MDA-MB-468, 76.3%; in the assay with MCF-10A it was 107%; in the assay with HDQ-P1 it was 92.3%; with BT-549 it was 94.5%; in the assay on CAL-148, 112%. Further, the normalised response came out at 101% in the assay on CAL-120; 102% in the assay with Hs578T; 108% in the assay on DU-4475; 89.3% in the assay with SK-BR-3; 94.5% in the assay with MFM-223; 104% in the assay with MDA-MB-231. Also, the normalised response in the assay on HCC1599 turned out to be 107%.

Consider `COc1cc2ncnc(Nc3ccc(F)c(Cl)c3)c2cc1OCCCN1CCOCC1` [Gefitinib] (10000 nM), for which the normalised response with BT-474 came out at 69.8%; with CAL-85-1 it was 34.7%; with HCC1143, 77%; in the assay with CAL-51, 100%; with MDA-MB-436, 74.1%; in the assay on HCC1937, 60.9%. Besides, the normalised response with MDA-MB-453 is 60.3%; with MDA-MB-468 it was 38.1%; in the assay on MCF-10A, 26.1%; in the assay with HDQ-P1, 56%; with BT-549, 73.6%; in the assay on CAL-148 it was 69.7%. For the same compound, the normalised response in the assay with CAL-120 came out at 83.6%; with Hs578T it was 97%; in the assay with DU-4475, 104%; in the assay on SK-BR-3 it was 27.1%; with MFM-223, 75%; with MDA-MB-231 it was 70.5%. Further, the normalised response with HCC1599 worked out at 81.9%.

Consider `O=C(Nc1ccncc1)C(=O)c1cn(Cc2ccc(Cl)cc2)c2ccccc12` [Indibulin] (10000 nM), for which the normalised response was 73.5% in the assay on BT-474; 43% in the assay with CAL-85-1; 47.9% with HCC1143; 18.4% with CAL-51; 44.7% with MDA-MB-436; 69% in the assay on HCC1937. Further, the normalised response in the assay on MDA-MB-453 was 66.9%; in the assay with MDA-MB-468, 37%; in the assay with MCF-10A, 76.1%; in the assay with HDQ-P1, 72%; in the assay with BT-549 it was 39.2%; in the assay on CAL-148, 103%. For the same compound, the normalised response was found to be 60.7% in the assay on CAL-120; 51.4% in the assay on Hs578T; 79% with DU-4475; 27% with SK-BR-3; 62.5% with MFM-223; 53.8% with MDA-MB-231. In addition, in the assay with HCC1599, the normalised response amounted to 73.1%.

Regarding `NC(=O)c1ccc(I)c([N+](=O)[O-])c1` [Iniparib] (10000 nM), the normalised response turned out to be 91% with BT-474; 116% with CAL-85-1; 92.1% in the assay on HCC1143; 84.7% in the assay with CAL-51; 73.3% in the assay on MDA-MB-436; 86.9% with HCC1937. Further, the normalised response in the assay with MDA-MB-453 was 73.2%; in the assay with MDA-MB-468 it was 79%; with MCF-10A, 76.3%; with HDQ-P1 it was 96.3%; in the assay with BT-549, 96.5%; in the assay on CAL-148, 88.8%. Also, the normalised response in the assay with CAL-120 came out at 98.2%; in the assay with Hs578T it was 95.5%; in the assay with DU-4475 it was 90.2%; with SK-BR-3, 71.1%; with MFM-223 it was 80%; in the assay with MDA-MB-231, 93.9%. Moreover, the normalised response in the assay with HCC1599 came to 88%.

Turning to `CCc1c2c(nc3ccc(OC(=O)N4CCC(N5CCCCC5)CC4)cc13)-c1cc3c(c(=O)n1C2)COC(=O)[C@]3(O)CC` [Irinotecan] (10000 nM), the normalised response in the assay with BT-474 was 69.5%; in the assay on CAL-85-1, 63.6%; with HCC1143, 60.1%; in the assay on CAL-51 it was 34.8%; in the assay on MDA-MB-436, 36.8%; in the assay with HCC1937, 70.9%. Also, the normalised response came to 102% in the assay with MDA-MB-453; 23.2% in the assay with MDA-MB-468; 68.2% in the assay with MCF-10A; 73.3% in the assay on HDQ-P1; 49.1% in the assay on BT-549; 26.4% in the assay with CAL-148. Further, the normalised response in the assay on CAL-120 worked out at 70%; in the assay with Hs578T, 86.9%; in the assay with DU-4475 it was 41.8%; in the assay on SK-BR-3, 47.4%; in the assay on MFM-223, 96.5%; in the assay with MDA-MB-231, 84.8%. The normalised response in the assay with HCC1599 is 29.8%.
